In brackets after ≈: the same amount, converted by molar mass. Where two headings read alike, the source gives them in different places.
Key:
[1] = tested on: B. humptydooensis ATCC BAA-2767; assay: microbe, parasite or virus in culture; assay type: cell-based; conditions: Burkholderia humptydooensis, ATCCBAA2767, read-out: Minimum inhibitory concentration (MIC), B. humptydooensis ATCC BAA-2767
[2] = tested on: B. thailandensis ATCC 700388; assay: microbe, parasite or virus in culture; assay type: cell-based; conditions: Burkholderia thailandensis, ATCC700388, read-out: Minimum inhibitory concentration (MIC), B. thailandensis ATCC 700388
A. baumannii PBP2 = A. baumannii PBP2 (Acinetobacter baumannii, UniProt D0C8Z9); assay: Bocillin-FL competition binding via gel filtration, A. baumannii PBP2
Method in brief: (§1)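 Competitive equilibrium binding with Bocillin-FL reporter: PBP pre-incubated with inhibitor dilutions, Bocillin-FL added, 15 min incubation. Labelled enzyme isolated by size-exclusion spin plates, fluorescence measured; EC50 obtained by fitting bound fraction against inhibitor concentration with a Hill-coefficient model.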

P. aeruginosa CDC-0095 = assay: microbe, parasite or virus in culture; assay type: cell-based; conditions: Pseudomonas aeruginosa, CDC0095, read-out: Minimum inhibitory concentration, P. aeruginosa CDC-0095
P. aeruginosa ATCC 27853 = assay: microbe, parasite or virus in culture; assay type: cell-based; conditions: Pseudomonas aeruginosa, ATCC27853, read-out: Minimum inhibitory concentration, P. aeruginosa ATCC 27853
P. aeruginosa CDC-0090 = assay: microbe, parasite or virus in culture; assay type: cell-based; conditions: Pseudomonas aeruginosa, CDC0090, read-out: Minimum inhibitory concentration, P. aeruginosa CDC-0090
P. aeruginosa ATCC 35151 = assay: microbe, parasite or virus in culture; assay type: cell-based; conditions: Pseudomonas aeruginosa, ATCC35151, read-out: Minimum inhibitory concentration, P. aeruginosa ATCC 35151
P. aeruginosa CDC-0054 = assay: microbe, parasite or virus in culture; assay type: cell-based; conditions: Pseudomonas aeruginosa, CDC0054, read-out: Minimum inhibitory concentration, P. aeruginosa CDC-0054
A. baumannii PBP1a = target: T1, A. baumannii PBP1a (Acinetobacter baumannii, UniProt A0ABX6CK30); assay: Bocillin-FL competition binding via gel filtration, A. baumannii PBP1a; conditions: competition binding assay using Bocillin-FL via gel filtration; read-out: A. baumannii PBP1a Potency
T1 sequence (A0ABX6CK30 1-851): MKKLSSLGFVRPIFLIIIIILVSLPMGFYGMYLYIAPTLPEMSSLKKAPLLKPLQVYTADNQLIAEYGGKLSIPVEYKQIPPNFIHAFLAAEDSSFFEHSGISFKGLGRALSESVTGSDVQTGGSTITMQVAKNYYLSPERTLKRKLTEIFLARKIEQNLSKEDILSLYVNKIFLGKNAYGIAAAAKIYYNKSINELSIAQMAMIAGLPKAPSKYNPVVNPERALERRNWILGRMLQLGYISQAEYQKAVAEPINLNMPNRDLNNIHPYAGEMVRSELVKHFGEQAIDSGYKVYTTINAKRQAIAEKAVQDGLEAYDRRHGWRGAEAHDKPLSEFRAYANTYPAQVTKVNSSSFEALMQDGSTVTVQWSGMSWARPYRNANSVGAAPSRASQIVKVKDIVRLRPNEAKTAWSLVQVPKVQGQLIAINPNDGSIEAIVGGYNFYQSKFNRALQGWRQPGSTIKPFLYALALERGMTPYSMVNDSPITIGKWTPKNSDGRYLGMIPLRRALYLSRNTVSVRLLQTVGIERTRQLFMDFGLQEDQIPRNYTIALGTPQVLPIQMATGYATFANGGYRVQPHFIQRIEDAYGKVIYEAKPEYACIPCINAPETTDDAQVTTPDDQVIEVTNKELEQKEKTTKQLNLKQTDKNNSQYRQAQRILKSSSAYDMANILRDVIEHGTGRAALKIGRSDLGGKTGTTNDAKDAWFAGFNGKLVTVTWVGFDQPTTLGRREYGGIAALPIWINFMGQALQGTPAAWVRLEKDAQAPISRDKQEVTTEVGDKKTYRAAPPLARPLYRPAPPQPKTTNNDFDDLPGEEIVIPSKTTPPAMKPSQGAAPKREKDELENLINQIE
Method in brief: as §1

P. aeruginosa CDC-0110 = assay: microbe, parasite or virus in culture; assay type: cell-based; conditions: Pseudomonas aeruginosa, CDC0110, read-out: Minimum inhibitory concentration, P. aeruginosa CDC-0110
[3] = tested on: P. aeruginosa (ΔmexAB-oprM); assay: Broth microdilution MIC in iron-depleted CAMHB (IDM); assay type: cell-based; conditions: Pseudomonas aeruginosa, read-out: Minimum inhibitory concentration, P. aeruginosa ΔmexAB-oprM
B. pseudomallei Bp82 = assay: microbe, parasite or virus in culture; assay type: cell-based; conditions: Burkholderia pseudomallei, BP82, read-out: Minimum inhibitory concentration, B. pseudomallei Bp82

A. baumannii PBP2, sequence (D0C8Z9 whole entry): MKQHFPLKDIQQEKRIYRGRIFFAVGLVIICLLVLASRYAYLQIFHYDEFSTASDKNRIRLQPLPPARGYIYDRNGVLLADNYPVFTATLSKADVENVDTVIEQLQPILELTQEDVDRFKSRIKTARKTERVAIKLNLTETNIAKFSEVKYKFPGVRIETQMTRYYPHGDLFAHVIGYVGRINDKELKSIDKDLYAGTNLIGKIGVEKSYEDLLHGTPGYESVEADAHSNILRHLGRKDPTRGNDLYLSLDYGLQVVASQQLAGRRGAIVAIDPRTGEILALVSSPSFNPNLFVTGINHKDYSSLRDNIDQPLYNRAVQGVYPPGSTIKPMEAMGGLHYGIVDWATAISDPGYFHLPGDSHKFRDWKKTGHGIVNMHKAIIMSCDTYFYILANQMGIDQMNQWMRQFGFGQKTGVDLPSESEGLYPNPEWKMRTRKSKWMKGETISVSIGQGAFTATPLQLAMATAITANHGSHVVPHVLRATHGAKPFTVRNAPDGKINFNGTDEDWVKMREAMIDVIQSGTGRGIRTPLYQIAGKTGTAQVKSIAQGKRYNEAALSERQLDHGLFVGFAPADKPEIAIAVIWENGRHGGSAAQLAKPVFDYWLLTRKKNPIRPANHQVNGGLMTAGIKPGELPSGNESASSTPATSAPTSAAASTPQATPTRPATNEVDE

SMILES	MIC [1]	MIC [2]	EC50 (A. baumannii PBP2)	MIC (P. aeruginosa CDC-0095)	MIC (P. aeruginosa ATCC 27853)	MIC (P. aeruginosa CDC-0090)	MIC (P. aeruginosa ATCC 35151)	MIC (P. aeruginosa CDC-0054)	EC50 (A. baumannii PBP1a)	MIC (P. aeruginosa CDC-0110)	MIC [3]	MIC (B. pseudomallei Bp82)	MIC ([3]; iron-depleted CAMHB (IDM), […])
NCc1cc(O)cc(C(=O)N2CCC(N3CCN(C(=O)N[C@@H](C(=O)N[C@H]4Cc5ccc(F)c(C(=O)O)c5OB4O)c4cc(F)c(O)c(O)c4Cl)C3=O)CC2)c1 (single isomer, unassigned) [Example 615]	< 1 µg/mL	< 1 µg/mL	10 to 50 µM	< 1 µg/mL	< 1 µg/mL	< 1 µg/mL	< 1 µg/mL	< 1 µg/mL	10 to 50 µM	< 1 µg/mL	< 1 µg/mL	–	–
NCc1ccc(C(=O)N2CCC(N3CCN(C(=O)NC(C(=O)N[C@H]4Cc5ccc(F)c(C(=O)O)c5OB4O)c4cc(F)c(O)c(O)c4Cl)C3=O)CC2)cc1O (single isomer, unassigned) [Example 616]	< 1 µg/mL	2 to 4 µg/mL (≈ 2.54 to 5.08 µM)	10 to 50 µM	< 1 µg/mL	< 1 µg/mL	< 1 µg/mL	< 1 µg/mL	< 1 µg/mL	10 to 50 µM	< 1 µg/mL	< 1 µg/mL	–	–
O=C(O)c1c(F)ccc2c1OB(O)[C@@H](NC(=O)[C@H](NC(=O)N1CCN(C3CCN(Cc4ccncn4)CC3)C1=O)c1cc(F)c(O)c(O)c1Cl)C2 [Example 602, (R)-3-((R)-2-(2-chloro-5-fluoro-3,4-dihydroxyphenyl)-2-(2-oxo-3-(1-(pyrimidin-4-ylmethyl)piperidin-4-yl)imidazolidine-1-carboxamido)acetamido)-7-fluoro-2-hydroxy-3,4-dihydro-2H-benzo[e][1,2]oxaborinine-8-carboxylic acid]	< 1 µg/mL	< 1 µg/mL	10 to 50 µM	2 to 4 µg/mL (≈ 2.74 to 5.48 µM)	< 1 µg/mL	< 1 µg/mL	< 1 µg/mL	< 1 µg/mL	< 10 µM	< 1 µg/mL	< 1 µg/mL	< 1 µg/mL	–
O=C(O)c1c(F)ccc2c1OB(O)[C@@H](NC(=O)[C@H](NC(=O)N1CCN(C3CCN(Cc4ccnnc4)CC3)C1=O)c1cc(F)c(O)c(O)c1Cl)C2 [Example 601, (R)-3-((R)-2-(2-chloro-5-fluoro-3,4-dihydroxyphenyl)-2-(2-oxo-3-(1-(pyridazin-4-ylmethyl)piperidin-4-yl)imidazolidine-1-carboxamido)acetamido)-7-fluoro-2-hydroxy-3,4-dihydro-2H-benzo[e][1,2]oxaborinine-8-carboxylic acid]	< 1 µg/mL	< 1 µg/mL	10 to 50 µM	2 to 4 µg/mL (≈ 2.74 to 5.48 µM)	< 1 µg/mL	2 to 4 µg/mL (≈ 2.74 to 5.48 µM)	< 1 µg/mL	< 1 µg/mL	< 10 µM	< 1 µg/mL	< 1 µg/mL	–	–
NCc1cccc(C(=O)N2CCC(N3CCN(C(=O)N[C@@H](C(=O)N[C@H]4Cc5ccc(F)c(C(=O)O)c5OB4O)c4cc(F)c(O)c(O)c4Cl)C3=O)CC2)c1 [Example 603, (R)-3-((R)-2-(3-(1-(3-(aminomethyl)benzoyl)piperidin-4-yl)-2-oxoimidazolidine-1-carboxamido)-2-(2-chloro-5-fluoro-3,4-dihydroxyphenyl)acetamido)-7-fluoro-2-hydroxy-3,4-dihydro-2H-benzo[e][1,2]oxaborinine-8-carboxylic acid]	< 1 µg/mL	< 1 µg/mL	10 to 50 µM	2 to 4 µg/mL (≈ 2.59 to 5.19 µM)	< 1 µg/mL	2 to 4 µg/mL (≈ 2.59 to 5.19 µM)	< 1 µg/mL	< 1 µg/mL	10 to 50 µM	< 1 µg/mL	–	–	< 1 µg/mL
O=C(O)c1c(F)ccc2c1OB(O)[C@@H](NC(=O)[C@H](NC(=O)N1CCN(C3CCN(S(=O)(=O)c4ccc5[nH]nnc5c4)CC3)C1=O)c1cc(F)c(O)c(O)c1Cl)C2 (single isomer, unassigned) [Example 621]	< 1 µg/mL	2 to 4 µg/mL (≈ 2.44 to 4.88 µM)	< 10 µM	< 1 µg/mL	< 1 µg/mL	< 1 µg/mL	< 1 µg/mL	< 1 µg/mL	< 10 µM	< 1 µg/mL	< 1 µg/mL	–	–

Reference: US20240270762A1, “PENICILLIN-BINDING PROTEIN INHIBITORS” (priority 2021, published 2024)
